In experiment [1] the test system is Aβ production in Chinese hamster ovary cells that over-express human APP695 with the London and Swedish mutations. The experiment in a line: Cellular Aβ IC50 determination (Aβ40 sandwich ELISA). Format: cell-based. To be noted: Cricetulus griseus. The gist of the method:
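CHO cells overexpressing human APP695 with London and Swedish mutations, seeded at 10% confluency, treated with compounds up to about 4 μM final (0.4% DMSO). Secreted Aβ40 measured by sandwich ELISA relative to control and fitted to a 4-parameter IC50 model.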

Another experiment concerns the target memapsin 2 (Homo sapiens, UniProt P56817). The experiment in a line: Inhibition of memapsin 2 beta-secretase activity (fluorogenic substrate FS-2). To be noted: memapsin 2, pH 4, 37° C., read-out: M2Ki. Format: biochemical. In a few lines:
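Memapsin 2 pre-incubated 20 min with compound at pH 4, 37° C, then FS-2 substrate (MCA-SEVNLDAEFK-DNP, APP Swedish cleavage site) added. Rate of fluorescence increase compared with uninhibited controls, fitted to a tight-binding inhibition model.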

The mark [2] stands for this setting: cellular Aβ production, read-out: IC50.

Where two headings read alike, the source gives them in different places.

The term IC50 denotes the midpoint of a concentration-inhibition curve.

Sequence of memapsin 2 (P56817 46-501): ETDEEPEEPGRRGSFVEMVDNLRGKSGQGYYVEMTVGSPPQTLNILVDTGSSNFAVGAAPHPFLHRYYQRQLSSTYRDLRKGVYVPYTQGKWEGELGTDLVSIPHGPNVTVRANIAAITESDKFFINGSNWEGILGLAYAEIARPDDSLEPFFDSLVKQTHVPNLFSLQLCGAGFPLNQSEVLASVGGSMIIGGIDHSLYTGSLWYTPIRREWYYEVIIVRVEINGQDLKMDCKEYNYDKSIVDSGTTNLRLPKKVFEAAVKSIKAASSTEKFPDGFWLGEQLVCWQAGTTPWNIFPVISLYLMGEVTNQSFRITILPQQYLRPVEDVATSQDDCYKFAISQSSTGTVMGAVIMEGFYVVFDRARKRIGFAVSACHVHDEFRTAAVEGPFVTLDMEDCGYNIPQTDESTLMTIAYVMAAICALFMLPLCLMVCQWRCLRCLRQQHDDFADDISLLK

For `COC(=O)Nc1cc(CNC[C@@H](O)[C@H](Cc2ccccc2)NC(=O)c2cccc(C(=O)N(C)Cc3nc(C)cs3)c2)cc(C(C)C)c1` [Compound 202, methyl 3-(((2R,3S)-2-hydroxy-3-(3-(methyl((4-methylthiazol-2-yl)methyl)carbamoyl)benzamido)-4-phenylbutylamino)methyl)-5-isopropylphenylcarbamate], in experiment [1] (setting [2]), the 50% inhibitory concentration (IC50) was < 1000 nM. Moreover, the Ki on memapsin 2 (20 minutes pre-incubation) is < 300 nM.

Regarding `Cc1csc(CN(C)C(=O)c2cc(C(=O)N[C@@H](Cc3ccccc3)[C@H](O)CNCc3cncc(C(C)C)c3)cc(C(F)F)c2)n1` [Compound 204, 5-(difluoromethyl)-N1-((2S,3R)-3-hydroxy-4-((5-isopropylpyridin-3-yl)methylamino)-1-phenylbutan-2-yl)-N3-methyl-N3-((4-methylthiazol-2-yl)methyl)isophthalamide], in experiment [1] (setting [2]), the IC50 was < 1000 nM. Also, the Ki on memapsin 2 (20 minutes pre-incubation) is < 300 nM.

Take `Cc1csc(CN(C)C(=O)c2cc(C(=O)N[C@@H](Cc3ccccc3)[C@H](O)CNCc3cncc(C(C)C)c3)cc(-c3ccncc3)c2)n1` [Compound 205, N1-((2S,3R)-3-hydroxy-4-((5-isopropylpyridin-3-yl)methylamino)-1-phenylbutan-2-yl)-N3-methyl-N3-((4-methylthiazol-2-yl)methyl)-5-(pyridin-4-yl)isophthalamide]: the IC50 in experiment [1] (setting [2]) is < 1000 nM. Also, at memapsin 2 (20 minutes pre-incubation), the Ki is < 300 nM.

As for `Cc1csc(CN(C)C(=O)c2cccc(C(=O)N[C@@H](Cc3ccccc3)[C@H](O)CN[C@H](C)c3cncc(C(C)C)c3)c2)n1` [Compound 206, N1-((2S,3R)-3-hydroxy-4-((R)-1-(5-isopropylpyridin-3-yl)ethylamino)-1-phenylbutan-2-yl)-N3-methyl-N3-((4-methylthiazol-2-yl)methyl)isophthalamide], the concentration for half-maximal inhibition (IC50) in experiment [1] (setting [2]) is < 1000 nM. Also, the Ki on memapsin 2 (20 minutes pre-incubation) was < 300 nM.

Regarding `COc1cc(CNC[C@@H](O)[C@H](Cc2ccccc2)NC(=O)c2cccc(C(=O)N(C)Cc3nc(C)cs3)c2)nc(N)n1` [Compound 207, N1-((2S,3R)-4-((2-amino-6-methoxypyrimidin-4-yl)methylamino)-3-hydroxy-1-phenylbutan-2-yl)-N3-methyl-N3-((4-methylthiazol-2-yl)methyl)isophthalamide], the IC50 in experiment [1] (setting [2]) was > 5000 nM. The Ki on memapsin 2 (20 minutes pre-incubation) was 301 to 500 nM.

Regarding `Cc1csc(CN(C)C(=O)c2cc(C(=O)N[C@@H](Cc3ccccc3)[C@H](O)CNCc3cc(OC(=O)N(C)C)cc(C(C)C)c3)cc(N(C)C)c2)n1` [Compound 209, 3-(((2R,3S)-3-(3-(dimethylamino)-5-(methyl((4-methylthiazol-2-yl)methyl)carbamoyl)benzamido)-2-hydroxy-4-phenylbutylamino)methyl)-5-isopropylphenyl dimethylcarbamate], the concentration for half-maximal inhibition (IC50) in experiment [1] was < 1000 nM. Further, at memapsin 2 (20 minutes pre-incubation), the Ki is < 300 nM.

With `COc1cccc(CNC[C@@H](O)[C@H](Cc2ccccc2)NC(=O)c2cc(C(=O)N(C)Cc3nc(C)cs3)cc(-c3ccccc3OC)c2)c1` [Compound 210, N3-((2S,3R)-3-hydroxy-4-(3-methoxybenzylamino)-1-phenylbutan-2-yl)-2′-methoxy-N5-methyl-N5-((4-methylthiazol-2-yl)methyl)biphenyl-3,5-dicarboxamide], the IC50 in experiment [1] (setting [2]) was < 1000 nM. Besides, the Ki on memapsin 2 (fluorogenic substrate FS-2) is < 300 nM.

In the case of `CC(C)c1cncc(CNC[C@@H](O)[C@H](Cc2ccccc2)NC(=O)c2cc(C(=O)N[C@H](C)c3ccccc3)cc(-c3ncco3)c2)c1` [Compound 211, N1-((2S,3R)-3-hydroxy-4-((5-isopropylpyridin-3-yl)methylamino)-1-phenylbutan-2-yl)-5-(oxazol-2-yl)-N3-((R)-1-phenylethyl)isophthalamide], the IC50 in experiment [1] (setting [2]) is < 1000 nM. In addition, the Ki at memapsin 2 (fluorogenic substrate FS-2) is < 300 nM.

Take `COc1cc(CNC[C@@H](O)[C@H](Cc2ccccc2)NC(=O)c2cccc(C(=O)N(C)Cc3nc(C)cs3)c2)nc(N(C)C)n1` [Compound 212, N1-((2S,3R)-4-((2-(dimethylamino)-6-methoxypyrimidin-4-yl)methylamino)-3-hydroxy-1-phenylbutan-2-yl)-N3-methyl-N3-((4-methylthiazol-2-yl)methyl)isophthalamide]: the IC50 in experiment [1] (setting [2]) is < 1000 nM. Also, the Ki on memapsin 2 (fluorogenic substrate FS-2) was < 300 nM.

As for `COc1cccc(CNC[C@@H](O)[C@H](Cc2ccccc2)NC(=O)c2cc(C(=O)N[C@H](C)c3ccccc3)cc(-c3ncco3)c2)c1` [Compound 213, N1-((2S,3R)-3-hydroxy-4-(3-methoxybenzylamino)-1-phenylbutan-2-yl)-5-(oxazol-2-yl)-N3-((R)-1-phenylethyl)isophthalamide], the concentration for half-maximal inhibition (IC50) in experiment [1] (setting [2]) was < 1000 nM. In addition, the Ki at memapsin 2 (fluorogenic substrate FS-2) lay in the range of 301 to 500 nM.

On to `Cc1csc(CN(C)C(=O)c2cc(C(=O)N[C@@H](Cc3ccccc3)[C@H](O)CNCc3cncc(C(C)C)c3)cc(-c3cnccn3)c2)n1` [Compound 214, N1-((2S,3R)-3-hydroxy-4-((5-isopropylpyridin-3-yl)methylamino)-1-phenylbutan-2-yl)-N3-methyl-N3-((4-methylthiazol-2-yl)methyl)-5-(pyrazin-2-yl)isophthalamide], for which the IC50 in experiment [1] (setting [2]) is < 1000 nM. On memapsin 2 (fluorogenic substrate FS-2), the Ki was < 300 nM.

With `Cc1csc(CN(C)C(=O)c2cccc(C(=O)N[C@@H](Cc3ccccc3)[C@H](O)CNCc3cc(O)cc(C(C)(C)C)c3)c2)n1` [Compound 215, N1-((2S,3R)-4-(3-tert-butyl-5-hydroxybenzylamino)-3-hydroxy-1-phenylbutan-2-yl)-N3-methyl-N3-((4-methylthiazol-2-yl)methyl)isophthalamide], the IC50 in experiment [1] (setting [2]) is < 1000 nM. In addition, at memapsin 2 (fluorogenic substrate FS-2), the Ki was < 300 nM.

Consider `Cc1csc(CN(C)C(=O)c2cccc(C(=O)N[C@@H](Cc3ccccc3)[C@H](O)CNCc3cncc(Cl)c3)c2)n1` [Compound 216, N1-((2S,3R)-4-((5-chloropyridin-3-yl)methylamino)-3-hydroxy-1-phenylbutan-2-yl)-N3-methyl-N3-((4-methylthiazol-2-yl)methyl)isophthalamide], for which the concentration for half-maximal inhibition (IC50) in experiment [1] (setting [2]) is < 1000 nM. At memapsin 2 (fluorogenic substrate FS-2), the Ki is < 300 nM.

`Cc1csc(CN(C)C(=O)c2cccc(C(=O)N[C@@H](Cc3ccccc3)[C@H](O)CNCc3cncc(C(C)(F)F)c3)c2)n1` [Compound 217, N1-((2S,3R)-4-((5-(1,1-difluoroethyl)pyridin-3-yl)methylamino)-3-hydroxy-1-phenylbutan-2-yl)-N3-methyl-N3-((4-methylthiazol-2-yl)methyl)isophthalamide]: the IC50 in experiment [1] (setting [2]) is < 1000 nM. For the same compound, the Ki on memapsin 2 (fluorogenic substrate FS-2) is < 300 nM.

For the compound `COc1cc(CNC[C@@H](O)[C@H](Cc2ccccc2)NC(=O)c2cccc(C(=O)N(C)Cc3nc(C)cs3)c2)cc([N+](=O)[O-])c1` [Compound 221, N1-((2S,3R)-3-hydroxy-4-(3-methoxy-5-nitrobenzylamino)-1-phenylbutan-2-yl)-N3-methyl-N3-((4-methylthiazol-2-yl)methyl)isophthalamide], the 50% inhibitory concentration (IC50) in experiment [1] (setting [2]) was < 1000 nM. For the same compound, the Ki on memapsin 2 (fluorogenic substrate FS-2) is < 300 nM.

For `Cc1csc(CN(C)C(=O)c2cc(C(=O)N[C@@H](Cc3ccccc3)[C@H](O)CNCc3cccc(C(F)(F)F)c3)cc(-c3cnccn3)c2)n1` [Compound 222, N1-((2S,3R)-3-hydroxy-1-phenyl-4-(3-(trifluoromethyl)benzylamino)butan-2-yl)-N3-methyl-N3-((4-methylthiazol-2-yl)methyl)-5-(pyrazin-2-yl)isophthalamide], the half-inhibitory concentration (IC50) in experiment [1] (setting [2]) is < 1000 nM. At memapsin 2 (fluorogenic substrate FS-2), the Ki is < 300 nM.

Regarding `Cc1csc(CN(C)C(=O)c2cc(C(=O)N[C@@H](Cc3ccccc3)[C@H](O)CNCc3cncc(C(C)C)c3)cc(C(C)O)c2)n1` (stereo partly drawn) [Compound 223, N1-((2S,3R)-3-hydroxy-4-((5-isopropylpyridin-3-yl)methylamino)-1-phenylbutan-2-yl)-5-(1-hydroxyethyl)-N3-methyl-N3-((4-methylthiazol-2-yl)methyl)isophthalamide], the half-inhibitory concentration (IC50) in experiment [1] (setting [2]) was < 1000 nM. Further, at memapsin 2 (fluorogenic substrate FS-2), the Ki is < 300 nM.

As for `COc1cc(CNC[C@@H](O)[C@H](Cc2ccccc2)NC(=O)c2cccc(C(=O)N(C)Cc3nc(C)cs3)c2)cc(N(C)C)c1` [Compound 224, N1-((2S,3R)-4-(3-(dimethylamino)-5-methoxybenzylamino)-3-hydroxy-1-phenylbutan-2-yl)-N3-methyl-N3-((4-methylthiazol-2-yl)methyl)isophthalamide], in experiment [1] (setting [2]), the half-maximal inhibitory concentration (IC50) is < 1000 nM. The Ki at memapsin 2 (fluorogenic substrate FS-2) is < 300 nM.

On to `Cc1csc(CN(C)C(=O)c2cccc(C(=O)N[C@@H](Cc3ccccc3)[C@H](O)CNCc3cncc(F)c3)c2)n1` [Compound 225, N1-((2S,3R)-4-((5-fluoropyridin-3-yl)methylamino)-3-hydroxy-1-phenylbutan-2-yl)-N3-methyl-N3-((4-methylthiazol-2-yl)methyl)isophthalamide], for which the half-inhibitory concentration (IC50) in experiment [1] (setting [2]) is 1000 to 5000 nM. The Ki on memapsin 2 (fluorogenic substrate FS-2) is < 300 nM.

`Cc1csc(CN(C)C(=O)c2cc(C(=O)N[C@@H](Cc3ccccc3)[C@H](O)CNCc3cncc(C(C)(C)C)c3)cc(N(C)C)c2)n1` [Compound 226, N1-((2S,3R)-4-((5-tert-butylpyridin-3-yl)methylamino)-3-hydroxy-1-phenylbutan-2-yl)-5-(dimethylamino)-N3-methyl-N3-((4-methylthiazol-2-yl)methyl)isophthalamide]: the IC50 in experiment [1] (setting [2]) was < 1000 nM. In addition, the Ki at memapsin 2 (fluorogenic substrate FS-2) was < 300 nM.

Consider `Cc1csc(CN(C)C(=O)c2cc(C(=O)N[C@@H](Cc3ccccc3)[C@H](O)CNCc3cccc(C(C)(F)F)c3)cc(N(C)C)c2)n1` [Compound 227, N1-((2S,3R)-4-(3-(1,1-difluoroethyl)benzylamino)-3-hydroxy-1-phenylbutan-2-yl)-5-(dimethylamino)-N3-methyl-N3-((4-methylthiazol-2-yl)methyl)isophthalamide], for which the IC50 in experiment [1] (setting [2]) was < 1000 nM. The Ki at memapsin 2 (fluorogenic substrate FS-2) was < 300 nM.
